Measurements from publication PMC10538940, “Evaluating Scalable Supervised Learning for Synthesize-on-Demand Chemical Libraries” (Journal of Chemical Information and Modeling, 2023).

Biological target: PriA-SSB (Klebsiella pneumoniae subsp. pneumoniae, UniProt A6TGC5)
Test: PriA-SSB AlphaScreen (AS) dose-response screen of Enamine REAL compounds
Assay type: biochemical, Klebsiella pneumonia
Settings: for Enamine Inactive (not confirmed as hit in full dose-response curves): eight concentrations 515.6 nm to 66 μm, includes some initial hits not confirmed
Experimental: We screened the MLPCN compound library using an AlphaScreen (AS) assay at a single concentration (33.3 μm) following the same protocol previously used to screen the LC1234 libraries.[27],[28] Briefly, library compounds and controls were dispensed from 10 mM DMSO stocks into white 1536-well plates with an Echo 550 acoustic liquid handler. Next, 3 μL of a master mix was added to each well using a Mantis liquid handler with a high-volume silicone chip to yield a final reaction mixture containing 10 mM HEPES-HCl (pH 7.5), 150 mM NaCl, 1 mM MgCl2, 10 mM dithiothreitol, 1 mg/mL bovine serum albumin, 0.01% Triton X-100, 0.1 μM Klebsiella pneumonia PriA (with N-terminal 6×His tag), 0.1 μM Biotinylated-SSBct (N-Biotin-Trp-Met-Asp-Phe-Asp-Asp-Asp-Ile-Pro-Phe-C), 5 μg/mL of both AS acceptor and donor beads, and 33.3 μm of compound. For positive and negative control wells, the compound was replaced with 25 μM SSBct peptide (N-Trp-Met-Asp-Phe-Asp-Asp-Asp-Ile-Pro-Phe-C) or 25 μM ΔFSSBct (N-Trp-Met-Asp-Phe-Asp-Asp-Asp-Ile-Pro-C), respectively. Plates were centrifuged briefly and rocked for an hour at room temperature. Then, the AS signal of each well was measured with a PheraStar plate reader using a 0.1 s settling time, a 0.3 s excitation, a 0.04 s delay, and a 0.6 s integration time. AS signals for each well were adjusted as previously described to reduce the impact of plate and edge effects.[28] We calculated a Z′ factor for each plate[61] and repeated plates with Z′ < 0.5. In addition, we calculated the % inhibition relative to the controls for each compound. We retested compounds with ≥35% inhibition that also passed PAINS filters[62],[63] with the same assay to confirm activity.
All 68 compounds were initially screened in four replicates at eight concentrations ranging from 515.6 nm to 66 μm. We defined compounds whose median % inhibition at 33 μm was at least 50%, the same threshold used for the AMS screen, as initial hits. We repeated the dose–response curve screens for two additional rounds of ten compounds each, expanding the range of concentrations tested to improve the quality of the curve fits (Appendix A.9). We defined confirmed hits as those with a dose–response curve in curve class[82] 1.2 or in curve class 2.2 with an IC50 95% upper confidence limit within the tested range of concentrations. We used the Collaborative Drug Discovery Vault software[83] to fit dose–response curves, calculate IC50 values and the 95% upper and lower confidence limits, and define curve classes. […]
A.9 Enamine REAL Dose-Response Curves
We generated three sets of dose-response curves: eight-point curves with four replicates for all 68 Enamine compounds, 16-point curves with eight replicates for 10 compounds, and another set of 16-point curves with six replicates for 10 compounds. The eight-point dose-response curves started with an initial concentration of 66 µm and progressively divided the concentration in half until reaching 515.6 nm. Both 16-point dose-response curves started with an initial concentration of 100 µm, then 66.7 µm, and then progressively divided the concentration in half until reaching 4.2 nm. All dose-response screens followed the same protocol used for the MLPCN library. The dose-response curve images are available in our […]
We generated the 16-point dose-response curves because we were unable to reliably estab-lish IC50 values for some compounds in the eight-point screen. The minimum concentrations tested were not low enough. When reporting IC50 values and bounds in Table 4 we used the screening data from the highest-quality dose-response curve. The second set of 16-point curves were the highest quality because they had 16 concentrations and were unaﬀected by any spatial plate eﬀects. The ﬁrst set of 16-point curves were the next highest quality because they also had 16 concentrations and the most replicates. However, some of the readings at the lowest concentration in these curves were skewed due to assay spatial eﬀects at the plate […]
edge. […]

Chain of PriA-SSB (A6TGC5 whole entry): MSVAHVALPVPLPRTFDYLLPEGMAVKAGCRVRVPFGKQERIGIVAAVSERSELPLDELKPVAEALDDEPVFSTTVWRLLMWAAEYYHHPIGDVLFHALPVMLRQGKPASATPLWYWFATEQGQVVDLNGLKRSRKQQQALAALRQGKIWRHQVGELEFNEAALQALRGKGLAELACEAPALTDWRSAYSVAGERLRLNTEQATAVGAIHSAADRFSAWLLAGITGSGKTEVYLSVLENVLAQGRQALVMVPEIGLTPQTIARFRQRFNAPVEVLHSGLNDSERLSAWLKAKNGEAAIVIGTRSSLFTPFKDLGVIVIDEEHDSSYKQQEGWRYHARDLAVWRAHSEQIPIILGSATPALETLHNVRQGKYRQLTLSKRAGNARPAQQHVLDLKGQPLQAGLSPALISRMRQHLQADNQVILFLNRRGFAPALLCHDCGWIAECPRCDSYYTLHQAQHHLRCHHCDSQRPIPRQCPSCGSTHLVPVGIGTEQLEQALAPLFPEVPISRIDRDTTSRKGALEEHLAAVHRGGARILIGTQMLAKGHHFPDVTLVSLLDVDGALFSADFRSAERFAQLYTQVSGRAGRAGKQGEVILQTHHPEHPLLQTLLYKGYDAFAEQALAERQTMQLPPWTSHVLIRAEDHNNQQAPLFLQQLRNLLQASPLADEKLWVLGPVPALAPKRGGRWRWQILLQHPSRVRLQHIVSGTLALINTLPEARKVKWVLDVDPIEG

CC(C)(C)c1ncc(-c2cccc3cccnc23)o1 [Z2998111045]
Enamine Inactive (not confirmed as hit in full dose-response curves): Inactive

O=c1[nH]ncc(N/N=C/c2ccccn2)c1Cl [Z114886052]
Enamine Inactive (not confirmed as hit in full dose-response curves): Inactive

CCc1nc(C)c(CSc2cccc3cccnc23)o1 [Z2273856428]
Enamine Inactive (not confirmed as hit in full dose-response curves): Inactive

CC(C)c1ncc(-c2cccc3cccnc23)n1C [Z2739840324]
Enamine Inactive (not confirmed as hit in full dose-response curves): Inactive

Cc1nn(C(C)C)cc1-c1ccc2cccnc2c1C [Z2618185084]
Enamine Inactive (not confirmed as hit in full dose-response curves): Inactive

CCOC(=O)c1[nH]c(C)c(C(=O)CSc2cccc3cccnc23)c1C [Z225905608]
Enamine Inactive (not confirmed as hit in full dose-response curves): Inactive

O=C(Nc1nc(-c2ccccn2)cs1)C1(C2CCCCO2)CCCO1 (stereo not drawn) [Z3075781550]
Enamine Inactive (not confirmed as hit in full dose-response curves): Inactive

O=C(CSc1cccc2cccnc12)Nc1cccc(N2CCCC2=O)c1 [Z202503096]
Enamine Inactive (not confirmed as hit in full dose-response curves): Inactive

O=C(O)c1cc(C(=O)N2CCS(=O)(=O)CC2)ccn1 [Z1443864314]
Enamine Inactive (not confirmed as hit in full dose-response curves): Inactive

Clc1cccnc1NN=Cc1ccccn1 [Z734817070]
Enamine Inactive (not confirmed as hit in full dose-response curves): Inactive

CC(C)N(C)S(=O)(=O)c1ccc(F)c(C(=O)Nc2nc(-c3ccccn3)cs2)c1 [Z339655406]
IC50: 6.8 µM

CN(C)CCN(C)c1ccc2ccc3cccnc3c2n1 [Z3557781825]
Enamine Inactive (not confirmed as hit in full dose-response curves): Inactive

Fc1cccc2[nH]c(-c3ccccn3)nc12 [Z666485712]
Enamine Inactive (not confirmed as hit in full dose-response curves): Inactive

O=C(O)CSc1ccc([N+](=O)[O-])c2cccnc12 [Z285779920]
Enamine Inactive (not confirmed as hit in full dose-response curves): Inactive

c1cnc2c(SCCn3cncn3)cccc2c1 [Z1116571364]
Enamine Inactive (not confirmed as hit in full dose-response curves): Inactive

O=[N+]([O-])c1ncn(Cc2cccc3cccnc23)n1 [Z666250890]
Enamine Inactive (not confirmed as hit in full dose-response curves): Inactive

CC1(C)CC(CSc2cccc3cccnc23)=NO1 [Z3638513333]
Enamine Inactive (not confirmed as hit in full dose-response curves): Inactive

C1=C(c2cccc3cccnc23)CCNC1 [Z3238971184]
Enamine Inactive (not confirmed as hit in full dose-response curves): Inactive

c1ccc(-c2cnc3n2CCC3)nc1 [Z3347084877]
Enamine Inactive (not confirmed as hit in full dose-response curves): Inactive

Cc1cc(-c2ccccn2)n[nH]1 [Z3225506284]
Enamine Inactive (not confirmed as hit in full dose-response curves): Inactive

O=C(CN1C(=O)COc2ccc([N+](=O)[O-])cc21)Nc1nc(-c2ccccn2)cs1 [Z109132782]
IC50: 12.4 µM

O=c1[nH]c(NN=Cc2ccccn2)nc2ccccc12 [Z1407899729]
Enamine Inactive (not confirmed as hit in full dose-response curves): Inactive

c1cnc2c(Cn3ccnc3)cccc2c1 [Z241926076]
Enamine Inactive (not confirmed as hit in full dose-response curves): Inactive

OCCCN(CCO)c1ccc2ccc3cccnc3c2n1 [Z3557694708]
Enamine Inactive (not confirmed as hit in full dose-response curves): Inactive

O=C1CC2(CCOC2)C(C(=O)Nc2nc(-c3ccccn3)cs2)CN1 (stereo not drawn) [Z3297024656]
IC50: 12.6 µM

O=[N+]([O-])c1cc(Cl)cc(C=Nc2ccc(Cl)c3ncccc23)c1O [Z314947084]
Enamine Inactive (not confirmed as hit in full dose-response curves): Inactive

COC(C)COc1ccc2ccc3cccnc3c2n1 (stereo not drawn) [Z3634004206]
Enamine Inactive (not confirmed as hit in full dose-response curves): Inactive

c1ccc(-c2csc(NC3COC4(CCC4)C3)n2)nc1 (stereo not drawn) [Z3295148399]
Enamine Inactive (not confirmed as hit in full dose-response curves): Inactive

CCOC(=O)c1c(C)[nH]c(C(=O)CSc2cccc3cccnc23)c1C [Z71173293]
Enamine Inactive (not confirmed as hit in full dose-response curves): Inactive

Clc1ccc(CN2CCOCCOCC2)c2ncccc12 [Z3652859018]
Enamine Inactive (not confirmed as hit in full dose-response curves): Inactive

O=C(Cc1ccc(S(=O)(=O)N2CCOCC2)s1)Nc1nc(-c2ccccn2)cs1 [Z29467739]
Enamine Inactive (not confirmed as hit in full dose-response curves): Inactive

Cc1n[nH]c(SCC(=O)Nc2nnc(-c3ccccn3)[nH]2)n1 [Z1313381195]
IC50: 15.5 µM

Nc1ncc(-c2ccccn2)cn1 [Z1255380138]
Enamine Inactive (not confirmed as hit in full dose-response curves): Inactive

c1ccc(-c2n[nH]c3ccccc23)nc1 [Z3242476057]
Enamine Inactive (not confirmed as hit in full dose-response curves): Inactive

Cc1cccc2nc(CSc3cccc4cccnc34)cn12 [Z56788250]
Enamine Inactive (not confirmed as hit in full dose-response curves): Inactive

c1cc2c(c(-c3cccc4cccnc34)c1)CNC2 [Z3484513235]
Enamine Inactive (not confirmed as hit in full dose-response curves): Inactive

Cc1ccc(-n2nc(C)cc2NC(=O)CSc2cccc3cccnc23)cc1 [Z71174619]
Enamine Inactive (not confirmed as hit in full dose-response curves): Inactive

c1cncc(CSCc2cccc3cccnc23)c1 [Z2146195633]
Enamine Inactive (not confirmed as hit in full dose-response curves): Inactive

CC1CC(Nc2nc(-c3ccccn3)nc3c2CCC3)CC(C)N1 (stereo not drawn) [Z3395547714]
IC50: 12.1 µM
